The source of these data is patent US20230123277A1, “COMPOSITIONS COMPRISING 2'-DEOXYCYTIDINE ANALOGS AND USE THEREOF FOR THE TREATMENT OF SICKLE CELL DISEASE AND THALASSEMIA” (AkiraBio, Inc., priority 2021, published 2023).

Data set [1] relates to pediatric brain tumor models. As to conditions: background statement; cited from earlier work.
Data set [2] in a line: Relative thermodynamic stability of crystalline polymorphs (DSC). The class given is physicochemical. Conditions: Form A compared with Form F, from melting temperatures. The protocol:
DSC ANALYSIS. Thermal events (i.e., melting, re-crystallization) were obtained from DSC thermograms, recorded with a heat flux DSC3+ STARe system (Mettler-Toledo GmbH, Switzerland). The DSC3+ was calibrated for temperature and enthalpy with a small piece of indium (m.p.=156.6° C.; δHf=28.45 J/g) and zinc (m.p.=419.6° C.; δHf=107.5 J/g). Samples (circa 2 mg) were sealed in standard 40 μL aluminum pans, pin-holed and heated in the DSC from 25° C. to 300° C., at a heating rate of 10° C./min. Dry N2 gas, at a flow rate of 50 mL/min was used to purge the DSC equipment during measurement. The cycling DSC experiments were measured in standard 40 μL aluminum pans, pin-holed and heated in the DSC from 25° C. to variable temperatures, then cooled back to 25° C. The heating and cooling rate was 10° C./min. Dry N2 gas, at a flow rate of 50 mL/min was used to purge the DSC equipment during measurement. Afterwards the samples were recovered and analyzed by HT-XRPD.
Form A obtained from the solvent equilibration experiment at RT in TFE was used for the analytical characterization. […] (FIG. 12A). […] The LCMS analysis confirmed the Form A's integrity with a purity of 100% (area %) (FIG. 12C).
Form F obtained from the evaporative crystallization experiment using DMF/acetonitrile (80/20, v/v) was used for characterization. […]

Take `Nc1ncn([C@H]2C[C@H](O)[C@@H](CO)S2)c(=O)n1` [5-aza-4′-thio-2′-deoxycytidine]: the therapeutic response result in data set [1] is given as “no significant therapeutic response”.

In the case of `Nc1nc(=O)n([C@H]2C[C@H](O)[C@@H](CO)O2)cc1F` [5-fluoro-2′-deoxycytidine, reference compound], the therapeutic response entry in data set [1] was “no significant therapeutic response”.

Take `Nc1ncn([C@H]2C[C@H](O)[C@@H](CO)S2)c(=O)n1` [Form A, 5-aza-4′-thio-2′-deoxycytidine]: in data set [2], the “thermodynamic stability of the polymorph” value is “thermodynamically more stable form”.
